Tests used:
GCN2 [1] = target: T1, GCN2 (Homo sapiens, UniProt Q9P2K8); assay: in vitro kinase assay; assay type: biochemical
T1 construct: gene EIF2AK4; GST-GCN2 fragment (192-1024)
T1 sequence (Q9P2K8 192-1024): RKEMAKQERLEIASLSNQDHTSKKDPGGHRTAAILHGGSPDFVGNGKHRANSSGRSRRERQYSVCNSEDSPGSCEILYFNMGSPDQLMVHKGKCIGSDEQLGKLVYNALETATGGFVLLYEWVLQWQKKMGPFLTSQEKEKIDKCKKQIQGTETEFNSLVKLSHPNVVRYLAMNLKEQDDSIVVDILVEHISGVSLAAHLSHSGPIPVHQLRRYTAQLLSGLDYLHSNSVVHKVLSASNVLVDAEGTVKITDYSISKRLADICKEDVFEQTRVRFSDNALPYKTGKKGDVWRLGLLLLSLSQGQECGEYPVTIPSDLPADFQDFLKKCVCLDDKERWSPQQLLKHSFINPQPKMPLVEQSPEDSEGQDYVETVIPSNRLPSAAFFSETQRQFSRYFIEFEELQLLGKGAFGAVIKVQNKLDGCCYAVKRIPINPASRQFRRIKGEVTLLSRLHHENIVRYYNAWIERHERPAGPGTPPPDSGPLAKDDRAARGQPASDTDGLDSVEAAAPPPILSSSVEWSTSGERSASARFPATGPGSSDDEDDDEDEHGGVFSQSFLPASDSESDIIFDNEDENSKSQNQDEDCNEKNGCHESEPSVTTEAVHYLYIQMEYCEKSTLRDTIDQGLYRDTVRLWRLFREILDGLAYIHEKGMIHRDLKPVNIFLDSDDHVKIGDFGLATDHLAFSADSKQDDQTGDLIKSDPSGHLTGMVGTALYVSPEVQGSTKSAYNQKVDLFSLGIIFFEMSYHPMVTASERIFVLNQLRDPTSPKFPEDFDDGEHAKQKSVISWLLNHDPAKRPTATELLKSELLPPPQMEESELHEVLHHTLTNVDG

GCN2 [2] = target: T1, GCN2; assay: in vitro kinase assay (Gaussian activation then inhibition); thermal shift of kinase domain; competition with A92; assay type: biochemical
PERK = target: T2, PERK (Homo sapiens, UniProt Q9NZJ5); assay: PERK activation (mobility shift) immunoblot in tunicamycin-treated HeLa cells; assay type: cell-based
T2 construct: gene EIF2AK3
T2 sequence (Q9NZJ5 30-1116): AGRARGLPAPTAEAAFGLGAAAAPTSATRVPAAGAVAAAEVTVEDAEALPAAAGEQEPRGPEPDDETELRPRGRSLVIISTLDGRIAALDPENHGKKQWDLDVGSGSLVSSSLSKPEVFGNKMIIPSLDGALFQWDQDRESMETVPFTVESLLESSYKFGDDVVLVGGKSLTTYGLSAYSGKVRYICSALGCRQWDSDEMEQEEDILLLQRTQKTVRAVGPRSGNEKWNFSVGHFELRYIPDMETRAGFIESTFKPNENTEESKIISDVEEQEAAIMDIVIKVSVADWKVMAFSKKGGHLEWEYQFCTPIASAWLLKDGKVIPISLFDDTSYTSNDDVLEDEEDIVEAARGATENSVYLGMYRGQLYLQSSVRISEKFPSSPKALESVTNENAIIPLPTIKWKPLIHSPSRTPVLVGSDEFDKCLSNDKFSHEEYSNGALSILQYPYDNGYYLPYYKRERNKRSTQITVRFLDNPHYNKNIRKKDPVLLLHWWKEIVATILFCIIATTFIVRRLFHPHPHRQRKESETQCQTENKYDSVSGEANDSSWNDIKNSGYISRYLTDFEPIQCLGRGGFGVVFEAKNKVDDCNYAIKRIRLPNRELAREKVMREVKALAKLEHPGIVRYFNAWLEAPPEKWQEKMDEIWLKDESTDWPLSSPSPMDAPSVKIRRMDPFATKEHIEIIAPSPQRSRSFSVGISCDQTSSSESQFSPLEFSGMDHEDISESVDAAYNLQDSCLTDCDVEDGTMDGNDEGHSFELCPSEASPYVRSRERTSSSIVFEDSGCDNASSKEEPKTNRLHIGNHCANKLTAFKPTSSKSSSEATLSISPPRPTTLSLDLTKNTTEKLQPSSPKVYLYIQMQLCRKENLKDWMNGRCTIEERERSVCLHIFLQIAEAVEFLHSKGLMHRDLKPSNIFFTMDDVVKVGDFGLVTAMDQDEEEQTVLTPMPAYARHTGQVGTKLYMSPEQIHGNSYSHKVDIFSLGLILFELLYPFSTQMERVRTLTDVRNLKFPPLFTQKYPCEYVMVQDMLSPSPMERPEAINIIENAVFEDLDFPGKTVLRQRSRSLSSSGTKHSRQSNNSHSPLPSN

[3] = target: the molecule itself; assay: SEC-MALS; GST-GCN2 fragment at ~1.7 mg/ml, incubated 20 min at 30 °C with DMSO or 50 µM GSK'157; Superdex 200 Increase 10/300 GL, 10 mM HEPES, 150 mM NaCl, 1 mM TCEP with DMSO or 50 µM GSK'157; same result in both conditions

Nc1ncnc2c1ncn2[C@@H]1O[C@H](CO[P@](=O)(O)O[P@](=O)(O)NP(=O)(O)O)[C@@H](O)[C@H]1O [AMP-PNP]
in vitro kinase assay (GCN2 [1]): ~ 250 μM

Cc1cccc(CC(=O)N2CCc3c2ccc(-c2cn(C)c4ncnc(N)c24)c3F)n1 [GSK'157, GSK2656157]
in vitro kinase assay (Gaussian activation then inhibition); thermal shift of ki (GCN2 [2]): ~ 5 μM
PERK activation (mobility shift) immunoblot in tunicamycin-treated HeLa cells (PERK): 0.02 to 10 µM

B1: in-house recombinant GST-GCN2 fragment (192-1024) (domain or fragment, UniProt Q9P2K8 192-1024, looked up)
chain: T1 sequence (Q9P2K8 192-1024)
notes: GCN2 (eIF2alpha kinase 4), residues 192-1024; MW of the GST fusion ~135 kDa as printed; eluted with glutathione, no cleavage of GST is described; GST itself is known to dimerise, so the dimer may owe to the tag (my surmise); also called recombinant GCN2; source: Sf9 (baculovirus), purified (Glutathione Sepharose 4B, Superdex 200); not shown: GST, N-terminal, kept
stoichiometry N [3]: 2

— publication PMC10491595, “Activation of the integrated stress response by inhibitors of its kinases” (Nature Communications, 2023)
